From patent US12065622B2, “Ammonium-based ionic liquid and its use as a lubricant additive” (TOTALENERGIES ONETECH, priority 2020, dated 2024)

Experiment: Base number (TBN) according to ASTM D2896
Type: physicochemical
Conditions: neat ionic liquid
Method: An oil's neutralization capacity is measured by its BN or Base Number, characterized by its basicity. It is measured according to standard ASTM D-2896 and is expressed as an equivalent in milligrams of potash per gram of oil (also called “mg of KOH/g” or “BN point”). The BN is a standard criterion making it possible to adjust the basicity of the cylinder oils to the sulphur content of the fuel oil used, in order to be able to neutralize all of the sulphur contained in the fuel, and capable of being converted to sulphuric acid by combustion and hydrolysis.

## Tri-n-Octylmethylammonium 2-Ethylhexanoate [IL1]
  base number: 114 mg KOH/g
